Laboratory results from patent US20260034218A1, “ALLEVIATING GRAFT VERSUS HOST DISEASE USING ENGINEERED INKT CELLS” (The Regents of the University of California, priority 2022, published 2026).

Experiments:
HSC-iNKT cells [1] = assay: GCV in vitro killing assay; format: cell-based, human; conditions: GCV 0-50 μM, 4 days
Description: (§1) To increase the safety profile of HSC-iNKT cell product, we included an sr39TK PET imaging/suicide gene in the lentiviral vector, which allows for the in vivo monitoring of these cells using PET imaging and the elimination of these cells through ganciclovir (GCV)-induced depletion in case of an adverse event (FIGS S1A and 1B in Li et al.).
For GCV in vitro killing assays, HSC-iNKT cells were cultured in C10 medium in the presence of titrated amount of GCV (0-50 μM) for 4 days; live HSC-iNKT cells were then counted using a hematocytometer (VWR) via Trypan Blue staining (Fisher Scientific).

HSC-iNKT cells [2] = assay: GCV in vivo killing assay, NSG xenograft mouse model; design: species or system human cells in NSG mice; conditions: GCV i.p. 50 mg/kg per day, 5 days
Description: as §1
GCV in vivo killing assay was performed using an NSG xenograft mouse model. NSG mice received i.v. injection of 1×10^7 HSC-iNKT cells on day 0, followed by i.p. injection of GCV for 5 consecutive days (50 mg/kg per injection per day). On day 5, mice were terminated. Multiple tissues (i.e., blood, spleen, liver, and lung) were collected and processed for flow cytometry analysis to detect tissue-infiltrating HSC-iNKT cells (identified as iNKT TCR^+CD45^+), following established protocols (Li et al., 2021b; Y. R. Li et al., 2022; Zhu et al., 2019).

For `Nc1nc(O)c2ncn(COC(CO)CO)c2n1` [GCV, Ganciclovir], the “killing of HSC-iNKT cells in cell culture” value (HSC-iNKT cells [1]) was “effective killing” and the “depletion of HSC-iNKT cells from blood, liver, spleen and lung” value (HSC-iNKT cells [2]) was “efficient depletion”.
